Assay results: patent US20240156764A1, “INHIBITION OF URACIL DNA GLYCOSYLASE IN THE OPEN CONFORMATION” (CASE WESTERN RESERVE UNIVERSITY, priority 2022, published 2024)
“Also recorded” adds a separate entry of the source.

What was measured:
human OGG1 protein = molecular target: T1, human OGG1 protein (Homo sapiens, UniProt O15527); assay: Gel-based DNA cleavage assay with a single oxoG:C basepair; assay type: biochemical
T1 construct: purchased NEBiolabs (New England Biolabs)
Experimental: 20% polyacrylamide nucleic acid urea gel electrophoresis was used to resolve the DNA bands at room temperature, 200 v for 50 min. Analysis and quantification of DNA cleavage were done as follows. A background subtraction step was included using the 23mer from the DNA only lane. […] B: Points on the plot were averaged from four different gels. The IC50 value was generated using Prism software version 8.4.3, non-linear fit, [inhibitor] vs. response (three parameters, R2=0.99) averaging points from four different gels. Y error bars represent the standard deviation from the mean. […] A single oxo-guanine: cytosine base pair DNA with a Cy3 fluorescent tag on the 3′ end was used (10 nM). D: The IC50 value was generated using Prism software version 8.4.3, non-linear fit, [inhibitor] vs. response (three parameters, R2=0.98) averaging points from three different gels.
Following pre-incubation occurred for 20 min at 37° C., 2 μL of U:A DNA (500 nM stock) was added to initiate the reaction, total reaction volume of 50 μL/well. Each plate was incubated for 120 min at 37° C. […] Gel data were analyzed using ImageJ software. […] Percent cleavage was calculated by using fluorescence intensity of the cleaved 23-mer DNA strand divided by the sum of the fluorescence bands (23mer+40mer DNA strands)*100. […]

[1] = molecular target: T2, UDG in human DLD1 colon cancer cell lysate (Homo sapiens, UniProt P13051); assay: DNA cleavage assay with cell-free protein extracts from DLD1 cells; assay type: biochemical
T2 construct: IC50 in DLD1 UDG containing cell lysate; other: estimated; effect on 23mer ssDNA generation; DLD1 cell extracts; extracts where UDG was present
T2 sequence (P13051 45-313 limits assumed): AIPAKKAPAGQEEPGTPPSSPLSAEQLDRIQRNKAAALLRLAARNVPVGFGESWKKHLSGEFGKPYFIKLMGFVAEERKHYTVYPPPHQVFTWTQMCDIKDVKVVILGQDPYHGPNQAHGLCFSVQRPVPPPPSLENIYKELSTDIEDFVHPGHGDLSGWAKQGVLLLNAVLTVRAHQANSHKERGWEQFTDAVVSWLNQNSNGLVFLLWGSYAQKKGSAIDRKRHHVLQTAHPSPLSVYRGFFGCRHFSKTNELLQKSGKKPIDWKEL
Experimental: A: human cancer lysates were extracted from DLD1 human colon cancer cell lines. […] 20% polyacrylamide nucleic acid urea gel electrophoresis was used to resolve the DNA bands at room temperature, 200 v for 50 min. DNA products were visualized using a Typhoon Trio+Variable Mode Imager (Amersham Biosciences) with excitation and emission wavelengths set to 532 nm and 585 nm respectively, PMT set to 400, and pixel size resolution set to 100 μm. […] Either uracil DNA (U:A bp) or thymidine DNA (T:A bp) was added to initiate the reaction and incubated for additional 20 min at 37° C. 20% polyacrylamide nucleic acid urea gel electrophoresis was used to resolve the DNA bands. Gel data were analyzed using ImageJ software. DNA bands were corrected using a constant background band intensity subtraction step. Then, percent cleavage was calculated by using fluorescence intensity of the cleaved 23-mer DNA strand divided by the sum of the fluorescence bands (23mer+40mer DNA).
The reaction was pre-incubated for 20 min at 37° C. before a fluorescently-labeled TAMRA DNA duplex oligo containing a single U:A bp (final 30 nM) was added to each reaction well with a total reaction volume of 50 μL/well. Plate was further incubated for 20 min at 37° C. 5 μL of a denaturing loading dye (20 mg of bromophenol blue, 9.7 ml of formamide plus 300 μL of 10M NaOH) was added to stop each reaction. DNA products from each reaction were resolved on a 20% denaturing polyacrylamide nucleic acid urea gel (5.3 grams of urea was dissolved in 2.3 mL of 5×TBE, 5 mL of 40% bis-acrylamide 29:1 solution). 5×TBE buffer was prepared by dissolving 54 grams of tris base, 28 grams of boric acid, and 4.5 grams of EDTA in a liter of distilled H2O. Gels were processed at 200V for 60 mins at room temperature, in the dark. […] Gel data were analyzed using ImageJ software. […] Then, percent cleavage was calculated by using fluorescence intensity of the cleaved 23-mer DNA strand divided by the sum of the fluorescence bands (23mer+40mer DNA strands)*100 for untreated and treated conditions. […]

human UDG = human UDG (Homo sapiens, UniProt P13051); assay: UDG protein thermal shift with Sypro orange dye; assay type: binding; conditions: 100 μM ATA
human UDG, sequence (P13051 94-313 limits assumed): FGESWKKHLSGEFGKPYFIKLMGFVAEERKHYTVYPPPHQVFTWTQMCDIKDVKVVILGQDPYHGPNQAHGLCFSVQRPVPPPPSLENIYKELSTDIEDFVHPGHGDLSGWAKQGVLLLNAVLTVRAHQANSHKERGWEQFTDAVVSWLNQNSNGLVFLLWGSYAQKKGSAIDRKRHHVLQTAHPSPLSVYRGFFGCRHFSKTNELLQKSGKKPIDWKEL
Experimental: The data for thermophoresis was recorded at 20° C. using the blue LED at 20% and IR-Laser at 40%. The isotherm derived from the raw data and fitted according to the law of mass action. […] Then 2 μL of 10× Sypro dye and 2 μL of ddH20 (Applied biosystems cat #4461141) were added. Monitoring of fluorescence took place for 2 hr (Bioraid CFX96, Hex filter, 25-97° C., 1.6° C./2 min). Negative (−) derivative RFU raw data and plots from the machine were obtained and analyzed. […] Melting temperature (Tm) value was taken directly from the midpoint on the −dRFU/dt vs. temperature graph. Each point on the graph represents an average of three data sets. Y error bars represent the standard deviation.
FIGS. 10(A-D) illustrate UDG thermal shift. A: Uracil DNA hairpin stabilizes UDG protein. […] Melting temperature (Tm) values were taken directly from lowest peak point on the negative dRFU/dt over temperature plots. B: (with uracil DNA): Parallel set of wells on the same plate included uracil-DNA harpin (final […]). Each plate was incubated 60 min at room temperature before the monitoring of fluorescence took place about 2 hr (Biorad CFX96, Hex filter, 25° C.-97C, 1.6° C./2 min). […] Each plate was incubated 60 min at room temperature before the monitoring of fluorescence took place about 2 hr (Biorad CFX96, Hex filter, 25° C.-97° C., increment of 1.6° C./2 min). […]

T1 sequence (O15527 whole entry): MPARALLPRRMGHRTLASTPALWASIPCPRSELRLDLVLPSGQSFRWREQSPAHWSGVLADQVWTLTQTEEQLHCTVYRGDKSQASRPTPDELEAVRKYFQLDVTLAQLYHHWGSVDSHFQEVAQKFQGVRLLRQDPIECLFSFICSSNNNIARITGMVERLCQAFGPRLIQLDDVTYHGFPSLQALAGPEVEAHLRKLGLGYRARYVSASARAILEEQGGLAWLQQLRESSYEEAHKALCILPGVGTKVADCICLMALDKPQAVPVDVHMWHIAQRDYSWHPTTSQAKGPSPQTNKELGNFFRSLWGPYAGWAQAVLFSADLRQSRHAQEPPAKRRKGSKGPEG

Which results are given for `O=C(O)C1=CC(=C(c2ccc(O)c(C(=O)O)c2)c2ccc(O)c(C(=O)O)c2)C=CC1=O` [ATA, aurintricarboxylic acid]?
inhibitory effect on purified human OGG1 (human OGG1 protein; OGG1 10 nM, compared with UDG): lesser inhibitory effect; IC50 (human OGG1 protein; dsDNA with single 8oxoG:C bp, gel-based): 4.5 µM; effect on 23mer ssDNA generation ([1]; 12.5 μM ATA, DLD1 cell extracts): minimal effect; inhibition of 23mer ssDNA appearance ([1]; 50 μM ATA, extracts where UDG was present): near-complete inhibition; also recorded: completely inhibited; IC50 ([1]; read-out: IC50 in DLD1 UDG containing cell lysate): ~32.5 µM; average maximum Tm change for UDG (human UDG; absence of uracil containing DNA): ~3.0 °C; change of Tm of UDG protein (human UDG; with 1.0 mM uracil DNA hairpin): did not further change the Tm
